Consider four compounds from ChEMBL document CHEMBL4825658, “Discovery of 3-(4-(2-((1H-Indol-5-yl)amino)-5-fluoropyrimidin-4-yl)-1H-pyrazol-1-yl)propanenitrile Derivatives as Selective TYK2 Inhibitors for the Treatment of Inflammatory Bowel Disease” (J Med Chem, 2021).

For data set [1], the target named is Tyrosine-protein kinase JAK2 (Homo sapiens, UniProt O60674). Nature of the data set: Inhibition of recombinant human JAK2 (808 to end residues) KTFCGTPEYLAPE as substrate measured after 40 mins in presence of [gamm33P]ATP by scintillation counting based radiometry assay.
Sequence of Tyrosine-protein kinase JAK2 (O60674 whole entry): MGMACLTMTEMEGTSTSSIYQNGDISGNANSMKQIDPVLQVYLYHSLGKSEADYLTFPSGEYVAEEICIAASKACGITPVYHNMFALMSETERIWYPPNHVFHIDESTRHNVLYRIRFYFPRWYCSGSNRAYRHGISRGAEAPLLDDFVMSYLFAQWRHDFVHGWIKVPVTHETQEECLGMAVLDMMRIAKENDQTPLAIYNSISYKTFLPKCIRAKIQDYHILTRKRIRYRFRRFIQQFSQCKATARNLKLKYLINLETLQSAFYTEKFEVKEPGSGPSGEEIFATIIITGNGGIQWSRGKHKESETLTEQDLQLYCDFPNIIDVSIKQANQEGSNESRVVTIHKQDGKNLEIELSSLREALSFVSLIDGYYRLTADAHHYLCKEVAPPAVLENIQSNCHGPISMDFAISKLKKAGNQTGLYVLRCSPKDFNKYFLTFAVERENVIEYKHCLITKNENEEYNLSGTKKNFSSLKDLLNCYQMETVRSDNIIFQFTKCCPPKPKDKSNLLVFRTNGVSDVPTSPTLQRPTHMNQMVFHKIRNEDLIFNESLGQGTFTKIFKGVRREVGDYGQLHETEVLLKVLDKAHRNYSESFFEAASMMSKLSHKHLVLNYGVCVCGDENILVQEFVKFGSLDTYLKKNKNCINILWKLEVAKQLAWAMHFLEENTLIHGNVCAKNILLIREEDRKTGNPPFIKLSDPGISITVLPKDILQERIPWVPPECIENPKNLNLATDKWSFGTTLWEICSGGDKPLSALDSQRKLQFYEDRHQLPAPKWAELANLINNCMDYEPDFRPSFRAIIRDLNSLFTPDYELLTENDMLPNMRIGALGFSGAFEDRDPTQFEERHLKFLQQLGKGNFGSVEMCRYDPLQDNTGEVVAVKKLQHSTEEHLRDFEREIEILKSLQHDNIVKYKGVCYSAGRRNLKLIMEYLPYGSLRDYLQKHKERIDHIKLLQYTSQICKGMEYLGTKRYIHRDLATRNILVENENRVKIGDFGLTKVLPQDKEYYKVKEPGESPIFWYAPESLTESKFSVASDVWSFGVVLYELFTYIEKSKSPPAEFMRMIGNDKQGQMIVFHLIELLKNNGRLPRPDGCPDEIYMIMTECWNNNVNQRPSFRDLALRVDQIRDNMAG
Data set [2] deals with Non-receptor tyrosine-protein kinase TYK2 (Homo sapiens, UniProt P29597). Nature of the data set: Inhibition of recombinant human TYK2 (875 to end residues) using GGMEDIYFEFMGG as substrate incubated for 40 mins in presence of [gamma33P]ATP by scintillation counting based radiometry assay.
Sequence of Non-receptor tyrosine-protein kinase TYK2 (P29597 whole entry): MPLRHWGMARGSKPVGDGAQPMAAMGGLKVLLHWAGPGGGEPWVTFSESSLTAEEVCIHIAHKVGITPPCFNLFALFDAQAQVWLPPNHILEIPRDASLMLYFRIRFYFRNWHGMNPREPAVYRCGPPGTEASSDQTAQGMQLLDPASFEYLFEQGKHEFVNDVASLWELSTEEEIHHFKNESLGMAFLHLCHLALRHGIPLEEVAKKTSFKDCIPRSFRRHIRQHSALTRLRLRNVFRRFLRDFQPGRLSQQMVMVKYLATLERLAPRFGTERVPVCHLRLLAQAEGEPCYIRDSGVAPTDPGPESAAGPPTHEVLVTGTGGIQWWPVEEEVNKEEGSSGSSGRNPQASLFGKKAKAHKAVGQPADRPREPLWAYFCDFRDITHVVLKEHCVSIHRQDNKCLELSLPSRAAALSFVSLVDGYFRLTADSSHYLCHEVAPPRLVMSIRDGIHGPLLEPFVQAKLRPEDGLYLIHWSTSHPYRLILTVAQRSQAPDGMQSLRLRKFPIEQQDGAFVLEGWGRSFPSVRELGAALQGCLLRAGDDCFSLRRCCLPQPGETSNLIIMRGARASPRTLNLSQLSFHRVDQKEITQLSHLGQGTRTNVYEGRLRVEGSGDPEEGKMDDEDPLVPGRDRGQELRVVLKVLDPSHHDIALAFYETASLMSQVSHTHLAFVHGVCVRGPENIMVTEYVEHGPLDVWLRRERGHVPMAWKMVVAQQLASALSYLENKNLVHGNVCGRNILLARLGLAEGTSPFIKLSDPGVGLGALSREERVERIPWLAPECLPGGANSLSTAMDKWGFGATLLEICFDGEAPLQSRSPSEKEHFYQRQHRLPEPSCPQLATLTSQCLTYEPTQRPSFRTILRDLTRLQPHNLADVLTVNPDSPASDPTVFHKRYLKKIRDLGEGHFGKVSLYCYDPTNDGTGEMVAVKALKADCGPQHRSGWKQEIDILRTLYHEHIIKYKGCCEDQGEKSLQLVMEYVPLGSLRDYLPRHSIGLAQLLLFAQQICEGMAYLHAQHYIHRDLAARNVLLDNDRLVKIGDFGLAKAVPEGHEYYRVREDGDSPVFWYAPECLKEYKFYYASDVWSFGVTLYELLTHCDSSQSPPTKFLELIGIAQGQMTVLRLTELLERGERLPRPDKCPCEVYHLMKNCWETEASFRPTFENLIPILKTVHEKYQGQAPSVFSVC
The species entered for the next data set is Homo sapiens. Nature of the data set: Selectivity index, ratio of IC50 for inhibition of recombinant human JAK2 (808 to end residues) to IC50 for inhibition of recombinant human TYK2 (875 to end residues).
For data set [3], the target named is Tyrosine-protein kinase JAK1 (Homo sapiens, UniProt P23458). Nature of the data set: Inhibition of human JAK1 (866 to end residues) using GEEPLYWSFPAKKK as substrate after 40 mins in presence of [gamma33P]ATP by scintillation counting based radiometry assay.
Sequence of Tyrosine-protein kinase JAK1 (P23458 whole entry): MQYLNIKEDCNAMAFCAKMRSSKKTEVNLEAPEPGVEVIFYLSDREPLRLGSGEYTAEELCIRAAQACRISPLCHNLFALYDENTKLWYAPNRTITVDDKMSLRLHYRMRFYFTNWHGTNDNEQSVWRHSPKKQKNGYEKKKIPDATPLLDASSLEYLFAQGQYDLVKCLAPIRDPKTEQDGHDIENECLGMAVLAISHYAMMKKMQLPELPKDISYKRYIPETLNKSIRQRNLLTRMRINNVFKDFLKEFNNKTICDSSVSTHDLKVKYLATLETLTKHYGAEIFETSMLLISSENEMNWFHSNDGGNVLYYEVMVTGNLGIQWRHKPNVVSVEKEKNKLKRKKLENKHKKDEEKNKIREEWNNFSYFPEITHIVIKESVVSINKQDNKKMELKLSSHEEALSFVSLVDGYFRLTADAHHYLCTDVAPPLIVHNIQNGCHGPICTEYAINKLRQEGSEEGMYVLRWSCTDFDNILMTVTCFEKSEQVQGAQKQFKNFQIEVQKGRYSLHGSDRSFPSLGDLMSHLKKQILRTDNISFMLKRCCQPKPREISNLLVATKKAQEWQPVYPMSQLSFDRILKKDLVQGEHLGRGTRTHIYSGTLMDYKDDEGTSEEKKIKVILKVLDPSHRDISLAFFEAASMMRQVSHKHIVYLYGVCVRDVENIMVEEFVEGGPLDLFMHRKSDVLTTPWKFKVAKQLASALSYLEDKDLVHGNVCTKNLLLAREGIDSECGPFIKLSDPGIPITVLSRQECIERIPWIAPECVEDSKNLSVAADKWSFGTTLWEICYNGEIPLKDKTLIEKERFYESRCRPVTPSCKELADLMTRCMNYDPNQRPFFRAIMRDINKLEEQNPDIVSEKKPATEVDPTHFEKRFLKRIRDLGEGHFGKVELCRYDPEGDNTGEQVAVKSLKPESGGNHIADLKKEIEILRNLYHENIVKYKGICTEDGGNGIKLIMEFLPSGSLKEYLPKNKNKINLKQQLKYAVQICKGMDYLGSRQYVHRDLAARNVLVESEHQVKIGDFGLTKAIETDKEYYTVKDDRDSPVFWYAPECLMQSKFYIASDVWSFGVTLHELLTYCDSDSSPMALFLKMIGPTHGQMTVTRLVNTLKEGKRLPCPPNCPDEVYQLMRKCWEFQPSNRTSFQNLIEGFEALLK
The target of data set [4] is T1, Tyrosine-protein kinase JAK3 (Homo sapiens, UniProt P52333).
T1 sequence (P52333 whole entry): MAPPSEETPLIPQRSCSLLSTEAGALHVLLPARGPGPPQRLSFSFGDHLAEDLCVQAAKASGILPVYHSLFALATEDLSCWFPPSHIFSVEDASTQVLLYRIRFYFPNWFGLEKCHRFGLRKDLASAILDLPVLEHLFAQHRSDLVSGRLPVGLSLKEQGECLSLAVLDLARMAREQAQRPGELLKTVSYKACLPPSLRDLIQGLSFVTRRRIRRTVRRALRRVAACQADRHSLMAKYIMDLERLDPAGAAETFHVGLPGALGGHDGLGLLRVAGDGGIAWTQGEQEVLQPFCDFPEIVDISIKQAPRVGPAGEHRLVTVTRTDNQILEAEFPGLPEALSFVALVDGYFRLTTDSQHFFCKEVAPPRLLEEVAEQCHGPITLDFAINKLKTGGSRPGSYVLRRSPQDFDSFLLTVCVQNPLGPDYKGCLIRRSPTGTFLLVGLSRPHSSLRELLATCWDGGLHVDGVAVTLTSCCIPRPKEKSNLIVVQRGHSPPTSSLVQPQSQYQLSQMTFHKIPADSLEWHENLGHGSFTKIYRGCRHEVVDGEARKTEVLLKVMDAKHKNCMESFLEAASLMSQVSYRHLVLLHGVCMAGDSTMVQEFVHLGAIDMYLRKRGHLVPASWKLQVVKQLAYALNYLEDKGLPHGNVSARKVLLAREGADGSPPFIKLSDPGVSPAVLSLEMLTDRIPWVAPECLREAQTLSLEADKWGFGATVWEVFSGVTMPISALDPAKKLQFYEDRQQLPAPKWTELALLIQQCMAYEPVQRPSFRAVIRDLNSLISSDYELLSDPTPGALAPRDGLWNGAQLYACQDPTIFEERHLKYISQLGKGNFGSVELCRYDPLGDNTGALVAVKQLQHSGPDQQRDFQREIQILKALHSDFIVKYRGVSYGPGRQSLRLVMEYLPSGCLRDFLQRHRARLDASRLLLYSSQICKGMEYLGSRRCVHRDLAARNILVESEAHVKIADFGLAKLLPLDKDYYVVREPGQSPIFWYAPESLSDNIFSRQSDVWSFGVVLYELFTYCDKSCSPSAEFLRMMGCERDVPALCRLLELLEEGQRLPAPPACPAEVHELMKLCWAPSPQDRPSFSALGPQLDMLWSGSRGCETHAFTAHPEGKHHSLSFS
Nature of the data set: Inhibition of recombinant human JAK3 (781 to end residues) using GGEEEEYFELVKKKK as substrate measured after 40 mins in presence of [gamma33P]ATP by scintillation counting based radiometry assay.

Data set [5] in a line: Metabolic stability in cryopreserved human liver microsomes assessed as half life. The data set is classed as ADME, Microsome.
Data set [6] concerns the target Serine/threonine-protein kinase 16 (Homo sapiens) (UniProt O75716). Nature of the data set: Inhibition of human STK16 at 0.1 uM relative to control.
For data set [7], the target named is Receptor-type tyrosine-protein kinase FLT3 (Homo sapiens) (UniProt P36888). Nature of the data set: Inhibition of human FLT3 at 0.1 uM relative to control.
Sequence of Receptor-type tyrosine-protein kinase FLT3 (Homo sapiens) (P36888 whole entry): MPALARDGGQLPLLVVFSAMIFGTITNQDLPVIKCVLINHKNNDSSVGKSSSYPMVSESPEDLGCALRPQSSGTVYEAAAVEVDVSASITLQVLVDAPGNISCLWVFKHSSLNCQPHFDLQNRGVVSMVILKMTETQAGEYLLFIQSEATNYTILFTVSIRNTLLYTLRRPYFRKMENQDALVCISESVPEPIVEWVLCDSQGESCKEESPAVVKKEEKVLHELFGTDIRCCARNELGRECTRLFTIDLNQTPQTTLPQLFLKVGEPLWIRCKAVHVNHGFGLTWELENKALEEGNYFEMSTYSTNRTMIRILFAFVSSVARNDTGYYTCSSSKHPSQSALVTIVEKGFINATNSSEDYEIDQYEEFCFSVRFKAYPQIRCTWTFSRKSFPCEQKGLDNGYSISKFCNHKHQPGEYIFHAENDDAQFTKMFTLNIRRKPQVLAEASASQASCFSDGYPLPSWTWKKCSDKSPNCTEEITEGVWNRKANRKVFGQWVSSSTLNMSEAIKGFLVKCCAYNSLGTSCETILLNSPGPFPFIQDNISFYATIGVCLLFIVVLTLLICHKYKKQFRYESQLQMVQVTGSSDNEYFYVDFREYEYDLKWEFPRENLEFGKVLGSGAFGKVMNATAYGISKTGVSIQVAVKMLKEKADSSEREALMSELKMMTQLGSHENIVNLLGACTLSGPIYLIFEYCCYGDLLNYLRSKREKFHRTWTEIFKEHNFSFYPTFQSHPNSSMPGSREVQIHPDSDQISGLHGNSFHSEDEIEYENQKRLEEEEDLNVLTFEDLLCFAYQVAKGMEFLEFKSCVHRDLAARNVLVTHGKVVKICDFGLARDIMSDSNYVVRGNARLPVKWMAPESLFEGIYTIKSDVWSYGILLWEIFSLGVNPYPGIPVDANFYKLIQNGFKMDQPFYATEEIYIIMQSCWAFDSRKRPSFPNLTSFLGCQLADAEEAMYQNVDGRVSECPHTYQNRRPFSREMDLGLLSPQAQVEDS
The nature of data set [8]: AUC (0 to t) in Sprague-Dawley rat at 5 mg/kg, iv by LC-MS/MS analysis. The conditions noted are these: in vivo. The arrangement: dose 5 mg/kg. The data set is classed as ADME, organism-based.
Data set [9] is described as follows: MRT (0 to t) in Sprague-Dawley rat at 5 mg/kg, iv by LC-MS/MS analysis. The conditions noted are these: in vivo. It counts as ADME, organism-based.
The nature of data set [10]: Half life in Sprague-Dawley rat at 5 mg/kg, iv by LC-MS/MS analysis. The conditions noted are these: in vivo. The data set is classed as ADME, organism-based.
Data set [11] in a line: Clearance in Sprague-Dawley rat at 5 mg/kg, iv by LC-MS/MS analysis. It counts as ADME, organism-based. The conditions noted are these: in vivo.
Data set [12] in a line: Volume of distribution at steady state in Sprague-Dawley rat at 5 mg/kg, iv by LC-MS/MS analysis. It counts as ADME, organism-based. To be noted: in vivo.
The nature of data set [13]: Cmax in Sprague-Dawley rat at 5 mg/kg, iv by LC-MS/MS analysis. The data set is classed as ADME, organism-based. The arrangement: route intravenous, dose 5 mg/kg. The conditions noted are these: in vivo.
A short description of data set [14]: AUC (0 to t) in Sprague-Dawley rat at 20 mg/kg, po by LC-MS/MS analysis. The conditions noted are these: in vivo. The arrangement: dose 20 mg/kg. It counts as ADME, organism-based.
The nature of data set [15]: MRT (0 to t) in Sprague-Dawley rat at 20 mg/kg, po by LC-MS/MS analysis. The conditions noted are these: in vivo. It counts as ADME, organism-based.
The nature of data set [16]: Half life in Sprague-Dawley rat at 20 mg/kg, po by LC-MS/MS analysis. It counts as ADME, organism-based. The conditions noted are these: in vivo.
The nature of data set [17]: Cmax in Sprague-Dawley rat at 20 mg/kg, po by LC-MS/MS analysis. Also on record: route oral, dose 20 mg/kg. The data set is classed as ADME, organism-based. To be noted: in vivo.
The nature of data set [18]: Tmax in Sprague-Dawley rat at 20 mg/kg, po by LC-MS/MS analysis. It counts as ADME, organism-based. To be noted: in vivo.
A short description of data set [19]: Oral bioavailability in Sprague-Dawley rat at 20 mg/kg by LC-MS/MS analysis. To be noted: in vivo. It counts as ADME, organism-based.
Data set [20] deals with Mus musculus. Nature of the data set: Anti-ulcerative colitis activity in DSS-induced C57BL/6 mouse ulcerative colitis model assessed as recovery of body weight at 10 to 20 mg/kg, po administrated for 6 days measured on day 9. The data set is classed as functional, organism-based. The conditions noted are these: dose 10-20 mg/kg, time 6.0 day.
In data set [21] the test system is Mus musculus. Nature of the data set: Anti-ulcerative colitis activity in DSS-induced C57BL/6 mouse ulcerative colitis model assessed as reduction in fecal occult blood at 10 to 20 mg/kg, po administrated for 6 days measured on day 9. To be noted: dose 10-20 mg/kg, time 6.0 day. It counts as functional, organism-based.
The subject of data set [22] is Mus musculus. Nature of the data set: Anti-ulcerative colitis activity in DSS-induced C57BL/6 mouse ulcerative colitis model assessed as reduction in watery stool at 10 to 20 mg/kg, po administrated for 6 days measured on day 9. It counts as functional, organism-based. The conditions noted are these: dose 10-20 mg/kg, time 6.0 day.
Data set [23] relates to Mus musculus. Nature of the data set: Anti-ulcerative colitis activity in DSS-induced C57BL/6 mouse ulcerative colitis model assessed as increase in colon length at 10 to 20 mg/kg, po administrated for 6 days measured on day 9. The conditions noted are these: dose 10-20 mg/kg, time 6.0 day. The data set is classed as functional, organism-based.
For data set [24], the system named is Mus musculus. Nature of the data set: Anti-ulcerative colitis activity in DSS-induced C57BL/6 mouse ulcerative colitis model assessed as recovery of colon epithelial and mucosal structure at 20 mg/kg, po administrated for 6 days measured on day 9 by microscopy based histopathological analysis. The data set is classed as functional, organism-based. The conditions noted are these: time 6.0 day.

Data set [25] deals with Mus musculus. Nature of the data set: Anti-ulcerative colitis activity in DSS-induced C57BL/6 mouse ulcerative colitis model assessed as recovery of colon crypts at 20 mg/kg, po administrated for 6 days measured on day 9 by microscopy based histopathological analysis. It counts as functional, organism-based. To be noted: time 6.0 day.
Data set [26] deals with Mus musculus. Nature of the data set: Anti-inflammatory activity in DSS-induced C57BL/6 mouse ulcerative colitis model assessed as suppression of IL-6 content in colon tissue at 20 mg/kg, po administrated for 6 days measured on day 9. It counts as functional, organism-based. The conditions noted are these: time 6.0 day.
Data set [27] has as its system Mus musculus. Nature of the data set: Anti- inflammatory activity in DSS-induced C57BL/6 mouse ulcerative colitis model assessed as suppression of IL-6 content in serum at 20 mg/kg, po administrated for 6 days measured on day 9. The data set is classed as functional, organism-based. The conditions noted are these: time 6.0 day.
The subject of data set [28] is Mus musculus. Nature of the data set: Anti-inflammatory activity in DSS-induced C57BL/6 mouse ulcerative colitis model assessed as suppression of TNFalpha content in colon tissue at 20 mg/kg, po administrated for 6 days measured on day 9. The conditions noted are these: time 6.0 day. It counts as functional, organism-based.
The subject of data set [29] is Mus musculus. Nature of the data set: Anti-inflammatory activity in DSS-induced C57BL/6 mouse ulcerative colitis model assessed as suppression of TNFalpha content in serum at 20 mg/kg, po administrated for 6 days measured on day 9. It counts as functional, organism-based. The conditions noted are these: time 6.0 day.
Data set [30] relates to Mus musculus. Nature of the data set: Anti-inflammatory activity in DSS-induced C57BL/6 mouse ulcerative colitis model assessed as increase in IL-10 content in colon tissue at 20 mg/kg, po administrated for 6 days measured on day 9. It counts as functional, organism-based. To be noted: time 6.0 day.
In data set [31] the test system is Mus musculus. Nature of the data set: Anti-inflammatory activity in DSS-induced C57BL/6 mouse ulcerative colitis model assessed as increase in IL-10 content in serum at 20 mg/kg, po administrated for 6 days measured on day 9. It counts as functional, organism-based. To be noted: time 6.0 day.

Active and inactive are the calls of the source. The calls are words filed in the database; no cut-off is given here.

Sequence of Serine/threonine-protein kinase 16 (Homo sapiens) (O75716 whole entry): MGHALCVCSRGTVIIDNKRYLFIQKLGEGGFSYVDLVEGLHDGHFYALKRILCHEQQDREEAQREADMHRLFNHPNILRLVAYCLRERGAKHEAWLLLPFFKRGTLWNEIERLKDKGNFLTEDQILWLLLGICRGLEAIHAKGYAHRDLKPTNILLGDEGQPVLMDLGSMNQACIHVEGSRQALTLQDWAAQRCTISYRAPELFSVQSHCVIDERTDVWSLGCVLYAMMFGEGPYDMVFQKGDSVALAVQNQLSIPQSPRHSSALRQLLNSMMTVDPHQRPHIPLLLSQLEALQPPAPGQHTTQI

As for `Cc1cnc(Nc2ccc3c(c2)CCN3S(=O)(=O)c2ccc(C(F)(F)F)cc2)nc1-c1cnn(C(C)C)c1`, the half-maximal inhibitory concentration (IC50) (as a rule, the concentration that inhibits the measured activity by half) in data set [1] was 82 nM; in data set [2] it was 16 nM; in [3], 341 nM; in data set [4], over 1000 nM. Also, the Selectivity Index in the data set listed under Homo sapiens worked out at 5.12. Moreover, in data set [5], the half-life (commonly how long it takes for the measured level to halve) turned out to be 0.0657 h.

Consider `Cc1cnc(Nc2ccc3c(c2)CCN3S(=O)(=O)c2ccc(C(F)(F)F)cc2)nc1-c1cnn(C)c1`, for which the IC50 in data set [1] was over 1000 nM; in data set [2] it was 148 nM; in data set [3] it was over 1000 nM; in data set [4] it was over 1000 nM. Further, the half-life in data set [5] turned out to be 0.122 h.

Turning to `N#CCCn1cc(-c2nc(Nc3ccc4c(ccn4S(=O)(=O)C(F)(F)F)c3)ncc2F)cn1`, the values for the half-life in data set [5], in data set [10] and in [16] were 2.03 h, 5.95 h and 3.64 h, respectively. The inhibition (in general, how much of the control response was suppressed) in data set [6] was “inactive”. The inhibition in data set [7] turned out to be 32%. Also, the results for the AUC(0-t) in [8] and in data set [14] were 29 ng·h/mL and 13.9 ng·h/mL, respectively. Also, in data set [9], the “MRT(t)” value is 4.98 h. Further, the clearance (as a rule, a measure of how efficiently the substance is removed, as volume per time) in data set [11] turned out to be 1.58 mL/min/kg. Besides, in [12], the distribution volume (Vdss) (in general, the apparent volume that relates the amount in the body to the concentration in plasma or blood) was found to be 0.985 L/kg. Further, the peak concentration (Cmax) (commonly the highest concentration seen after dosing) in [13] was found to be 48.5 ng/mL; in data set [17] it was 8 ng/mL. Further, the MRT last – broadly, the average time that molecules of a dose stay in the body – in data set [15] was found to be 2.76 h. The time to peak (Tmax) (in general, the time from dosing to the highest level) in data set [18] came to 1 h. In data set [19], the bioavailability (commonly the share of a dose that reaches the circulation, judged against a reference dose that is usually intravenous) came out at 12%. The outcome in the data set with Mus musculus [20], with Mus musculus [21], in the data set with Mus musculus [22], in the data set with Mus musculus [23], in the data set with Mus musculus [24] and in the data set on Mus musculus [25] was Active. The result with Mus musculus [26], in the data set with Mus musculus [27], with Mus musculus [28], in the data set on Mus musculus [29], in the data set on Mus musculus [30] and with Mus musculus [31] was Active.

As to `CCOC(C)n1cc(-c2nc(Nc3ccc4c(c3)CCN4S(=O)(=O)c3ccc(C(F)(F)F)cc3)ncc2C)cn1` (stereo not drawn), the concentration for half-maximal inhibition (IC50) in [1] amounted to 341 nM; in data set [2], 38 nM; in data set [3] it was 383 nM; in data set [4] it was 510 nM. Besides, the half-life in [5] came to 0.255 h.
